From ChEMBL document CHEMBL1156536, “Thiocarbamates as non-nucleoside HIV-1 reverse transcriptase inhibitors. Part 2: Parallel synthesis, molecular modelling and structure-activity relationship studies on analogues of O-(2-phenylethyl)-N-phenylthiocarbamate” (Bioorg Med Chem, 2008) come the findings set out here.

Data set [1] has as its target Human immunodeficiency virus type 1 reverse transcriptase (Human immunodeficiency virus 1, UniProt Q72547). Put plainly: Inhibition of HIV1 recombinant wild type reverse transcriptase.
The nature of data set [2]: Selectivity index, ratio of CC50 for human MT4 cells to EC50 for HIV1. It is filed as toxicity, cell-based. As to conditions: read-out: Ratio CC50/EC50.
The test system of data set [3] is Human immunodeficiency virus 1. Put plainly: Antiviral activity against HIV1 in human MT4 cells assessed as inhibition of virus-induced cytopathogenicity by MTT assay. The note with it: Human immunodeficiency virus 1, MT4. It is filed as functional, organism-based. In general terms: Cytopathic effects are the visible damage that an infection or toxin causes in cultured cells.

A short description of data set [4]: Cytotoxicity against mock-infected human MT4 cells by MTT assay. It is filed as cell-based.
The subject of data set [5] is Human immunodeficiency virus 1. Put plainly: Antiviral activity against HIV1 with reverse transcriptase K103N/Y181C mutation in human MT4 cells assessed as inhibition of virus-induced cytopathogenicity by MTT assay. The note with it: for EC50: Human immunodeficiency virus 1, MT4. It is filed as functional, organism-based.
Data set [6] deals with Human immunodeficiency virus 1. Put plainly: Antiviral activity against HIV1 with reverse transcriptase Y181C mutation in human MT4 cells assessed as inhibition of virus-induced cytopathogenicity by MTT assay. It is filed as functional, organism-based. The note with it: Human immunodeficiency virus 1, MT4.
The test system of data set [7] is Human immunodeficiency virus 1. Put plainly: Reduction of HIV1 p24 antigen level in virus infected C8166 cells. The note with it: Human immunodeficiency virus 1, C8166. It is filed as functional.

Structures are written as SMILES. Activity calls are given as the source filed them. The calls are words filed in the database; no cut-off is given here. Some results are limits rather than exact numbers.

Broadly, the IC50 is the concentration at which inhibition is half-maximal. As usually defined, the EC50 is the concentration giving half of the maximal effect. The CC50 is the concentration giving 50% cytotoxicity. Turning to `CC(COc1ccccc1)OC(=S)Nc1ccccc1` (racemic), the half-inhibitory concentration (IC50) in data set [1] is 1 µM. Besides, the selectivity ratio in data set [2] is greater than 50. The EC50 in data set [3] turned out to be 2 µM. Also, in data set [4], the CC50 was greater than 100 µM.

Take `Cc1ccc(CCOC(=S)Nc2ccc([N+](=O)[O-])cc2)cc1`: in data set [2], the selectivity ratio was greater than 333. The concentration for a half-maximal effect (EC50) in data set [3] turned out to be 0.3 µM; in data set [5] it was 92 µM; in data set [6] it was 8.6 µM. The CC50 in data set [4] was greater than 100 µM.

In general, EC90 refers to the point of the concentration-response curve where the effect stands at 90%. For the molecule `CC(COC(=S)Nc1ccc([N+](=O)[O-])cc1)c1ccccc1` (racemic), the selectivity ratio in data set [2] was greater than 167. The EC90 in data set [7] turned out to be 0.6 µM. In addition, the EC50 in data set [3] came out at 0.6 µM. Further, in data set [4], the CC50 was greater than 100 µM.

For the molecule `O=C1Nc2ccc(Cl)cc2C(C#CC2CC2)(C(F)(F)F)O1` (single isomer, unassigned) [EFAVIRENZ], in data set [5], the EC50 was determined as 0.04 µM.

As to `Cc1cccc(CCOC(=S)Nc2ccc([N+](=O)[O-])cc2)c1`, the selectivity ratio in data set [2] was found to be 192. Further, the EC50 amounted to 0.5 µM in data set [3], 69 µM in data set [5] and 8.9 µM in data set [6]. In data set [4], the CC50 was 96 µM.

For the molecule `COc1cccc(CCOC(=S)Nc2ccc(Cl)cc2)c1`, in data set [2], the selectivity ratio stood at 1180. Moreover, the figures for the EC50 in data set [3], in data set [5] and in data set [6] were 0.08 µM, 86 µM and 12 µM, respectively. The molecule also returned a CC50 in data set [4] of 94 µM.

Turning to `COc1ccccc1CCOC(=S)Nc1ccc(Cl)cc1`, in data set [2], the selectivity ratio was 614. Also, the concentration giving a half-maximal response (EC50) in data set [3] turned out to be 0.07 µM; in data set [6], 8.9 µM. Besides, the outcome in data set [5] was inactive. The same molecule displayed a CC50 in data set [4] of 43 µM.

Turning to `COc1cccc(CCOC(=S)Nc2ccc([N+](=O)[O-])cc2)c1`, in data set [2], the selectivity ratio is greater than 500. Besides, the EC50 is 0.2 µM in data set [3] and 8.3 µM in data set [6]. The result in data set [5] was inactive. In data set [4], this molecule displayed a CC50 greater than 100 µM.

For `Cc1ccc(NC(=S)OC(C)COc2ccccc2)cc1` (racemic), in data set [1], the IC50 turned out to be 1.4 µM. The selectivity ratio in data set [2] came to 20. Moreover, in data set [3], the EC50 was found to be 1.2 µM. The CC50 in data set [4] came to 24 µM.

For the molecule `CC(COC(=S)Nc1ccc(Cl)cc1)c1ccccc1` (racemic), in data set [2], the selectivity ratio amounted to 150. Also, the EC50 is 0.2 µM in data set [3] and 12 µM in data set [6]. For the same molecule, in data set [5], the result was inactive. Besides, in data set [4], half-maximal cytotoxicity (CC50) was put at 30 µM.

Regarding `S=C(NCCc1ccccn1)Nc1ccc(Br)cn1` [TROVIRDINE], in data set [2], the selectivity ratio came to 3000. For the same molecule, the 90% effect level in data set [7] (EC90) was put at 0.015 µM. For the same molecule, the midpoint of cytotoxicity in data set [4], the CC50, lay at 60 µM.

For the molecule `COc1cccc(CCOC(=S)Nc2ccc(Cl)c(Cl)c2)c1`, the selectivity ratio in data set [2] is 44. The EC50 in data set [3] is 1 µM. In data set [4], this molecule yielded a CC50 of 44 µM.

On to `Cc1ccc(NC(=S)OC(C)COc2ccccc2)cc1Cl` (racemic), for which the selectivity ratio in data set [2] is greater than 25. For the same molecule, the EC50 in data set [3] was found to be 4 µM. Also, the CC50 in data set [4] was greater than 100 µM.

For `O=[N+]([O-])c1ccc(NC(=S)OCCc2ccccc2Cl)cc1`, the selectivity ratio in data set [2] was greater than 250. Besides, the EC50 in data set [3] was 0.4 µM. Further, in data set [4], the cytotoxic concentration (CC50) was greater than 100 µM.

Take `COc1ccccc1CCOC(=S)Nc1ccc(Cl)c(Cl)c1`: the selectivity ratio in data set [2] is greater than 150. In data set [3], the EC50 came out at 0.3 µM. The CC50 in data set [4] is greater than 45 µM.

In the case of `O=[N+]([O-])c1ccc(NC(=S)OCCc2ccccc2O)cc1`, the selectivity ratio in data set [2] is 3.6. In data set [3], the EC50 is 10 µM. The molecule further came in with a 50% cytotoxic concentration (CC50) in data set [4] of 36 µM.

Take `S=C(Nc1ccccc1)OC/C=C/c1ccccc1`: the selectivity ratio in data set [2] was greater than 1.5. Besides, the EC50 in data set [3] was 67 µM. Further, the CC50 in data set [4] is greater than 100 µM.

Regarding `CC(OC(=S)Nc1ccc(Cl)cc1)c1cccc2ccccc12` (racemic), the selectivity ratio in data set [2] is greater than 1.2. Besides, the EC50 in data set [3] stood at 82 µM. In data set [4], this molecule yielded a half-maximal cytotoxic concentration (CC50) greater than 100 µM.
